Patent US6392055B1, “Synthesis and biological evaluation of analogs of the antimitotic marine natural product curacin A” (The University of Pittsburgh, priority 2000, dated 2002)
Read-outs that look alike come from different tables or passages of the source.

Key:
PC-3 cells = assay: Growth inhibition of prostate carcinoma cells (MTS); type: cell-based, human
MDA-MB231 cells = assay: Growth inhibition of breast carcinoma cells (MTS); type: cell-based, human
2008 cells = assay: Growth inhibition of ovarian carcinoma cells (MTS); type: cell-based, human
[1] = system: isolated bovine brain tubulin; assay: Inhibition of GTP/glutamate-induced tubulin polymerization (turbidimetric, 30° C.); type: biochemical; details: for % TPI 5 μM / Percent Tubulin Polymerization Inhibition (TPI), 5 μM: 5 μM compound
[2] = system: tubulin (colchicine site); assay: Inhibition of [3H]colchicine binding to tubulin; parameters: species or system bovine; details: for % CBI 5 μM, (30° C.) / % CBI 50 μM, (30° C.): 30° C. (values in parentheses); for Percent Colchicine Binding Inhibition (CBI), 1 μM: 1 μM compound; for IC50: 5 μM [3H]colchicine, 1 μM tubulin
Experimental: Assays to determine whether 15mix-17mix inhibited binding of [^3H]colchicine to tubulin at both 30° C. and 37° C. were performed. This was accomplished using methods described previously. Kang, G.-J.; Getahun, Z.; Muzaffar, A.; Brossi, A.; Hamel, E. J. Biol. Chem. 1990, 265, 10255; Verdier-Pinard, P.; Lai, J.-Y.; Yoo, H.-D.; Yu, J.; Marquez, B.; Nagle, D. G.; Nambu, M.; White, J. D.; Falck, J. R.; Gerwick, W. H.; Day, B. W.; Hamel, E. Mol. Pharmacol. 1998, 53, 62. Briefly, 5 μM [^3H]colchicine (2.3 TBq/mmol), drug (1, 5, 10, 50, or 250 μM), or vehicle (DMSO, 5% v/v) were incubated at 30° C. for 15 minutes or at 37° C. for 10 minutes with 1 μM tubulin in the presence of 1 M monosodium glutamate, 0.1 M glucose-1-phosphate, 1 mM MgCl2, 1 mM GTP, and 0.5 mg/mL bovine serum albumin. The solutions were filtered through two stacks of DEAE-cellulose filters and the radioactivity in the filtrate was determined by scintillation spectrometry. Each series of determinations included positive controls of 1, 5, and/or 50 μM curacin A.

[3] = 96 h, read-out: GI50 PC3 (prostate) 96 h
[4] = read-out: GI50 PC3 (prostate) 48 h, 48 h
[5] = 96 h, read-out: GI50 MDA-MB231 (breast) 96 h
[6] = read-out: GI50 MDA-MB231 (breast) 48 h, 48 h
[7] = 96 h, read-out: GI50 2008 (ovarian) 96 h
[8] = read-out: GI50 2008 (ovarian) 48 h, 48 h
[9] = 96 h, Table II prints no unit, read-out: GI50 PC3 96 h
[10] = read-out: GI50 PC3 48 h, 48 h, Table II prints no unit
[11] = 96 h, Table II prints no unit, read-out: GI50 MDA 96 h
[12] = read-out: GI50 MDA 48 h, 48 h, Table II prints no unit
[13] = 96 h, Table II prints no unit, read-out: GI50 2008 96 h
[14] = read-out: GI50 2008 48 h, 48 h, Table II prints no unit

| SMILES | GI50 (PC-3 cells; [3]) [µM] | GI50 (PC-3 cells; [4]) [µM] | GI50 (MDA-MB231 cells; [5]) [µM] | GI50 (MDA-MB231 cells; [6]) [µM] | GI50 (2008 cells; [7]) [µM] | GI50 (2008 cells; [8]) [µM] | GI50 (PC-3 cells; [9]) [µM] | GI50 (PC-3 cells; [10]) [µM] | GI50 (MDA-MB231 cells; [11]) [µM] | GI50 (MDA-MB231 cells; [12]) [µM] | GI50 (2008 cells; [13]) [µM] | GI50 (2008 cells; [14]) [µM] | Percent Colchicine Binding Inhibition (CBI), 5 μM ([2]; 5 μM compound) [%] | Percent Colchicine Binding Inhibition (CBI), 50 μM ([2]; 50 μM compound) [%] | % TPI 5 μM [1] [%] | % CBI 5 μM, (30° C.) ([2]; 5 μM compound) | % CBI 5 μM, 37° C. ([2]; 5 μM compound, 37° C.) [%] | % CBI 50 μM, (30° C.) ([2]; 50 μM compound) | % CBI 50 μM, 37° C. ([2]; 50 μM compound, 37° C.) [%] | Percent Tubulin Polymerization Inhibition (TPI), 5 μM [1] [%] | other results |
| --- | --- | --- | --- | --- | --- | --- | --- | --- | --- | --- | --- | --- | --- | --- | --- | --- | --- | --- | --- | --- | --- |
| C=CC[C@@H](CC[C@@]1(C)C[C@H]1[C@H]1C[C@@H]1CC/C=C\[C@@H]1COC([C@@H]2C[C@@H]2C)=N1)OC [JRCPOX] | 24 ± 1 | 49 ± 1 | 24 | 18 ± 4 | 23 ± 1 | 18 ± 4 |  |  |  |  |  |  |  |  | 83 | (−142 ± 59) % | −8 ± 11 | (−205 ± 17) % | −74 ± 19 |  |  |
| COc1ccc(/C=C\CC/C=C/C=C(\C)CCC(O)c2cc3ccccc3s2)c(OC)c1 (stereo not drawn) [Compound 19AR4] |  |  |  |  |  |  | > 50 | > 50 | 18.6 ± 3 | > 50 | 26.9 ± 3 | 29.8 ± 1.4 | −41.0 ± 17.8 | −26.4 ± 14.7 |  |  |  |  |  | 60.5 | Percent Colchicine Binding Inhibition (CBI), 1 μM [2]: 1.4 ± 18.5% |
| COc1cc(/C=C\CC/C=C/C=C(\C)CCC(O)c2cccs2)cc(OC)c1OC (stereo not drawn) [Compound 19CR2] |  |  |  |  |  |  | 1.22 ± 0.22 | 0.875 ± 1.02 | 1.28 ± 0.12 | 0.083 ± 0.125 | 0.235 ± 0.021 | 0.38 ± 0.002 | 30.2 ± 7.3 | 71.6 ± 2.8 |  |  |  |  |  | >100 |  |
| COc1ccc(/C=C\CC/C=C/C=C(\C)CCC(O)c2cc(OC)ccc2OC)c(OC)c1 (stereo not drawn) [Compound 19AR6] |  |  |  |  |  |  | > 50 | > 50 | 18.3 ± 13.6 | 39.3 ± 11.3 | 32.9 ± 3.7 | 35.2 ± 2.4 | −6.8 ± 13.1 | −22.8 ± 8.9 |  |  |  |  |  | 31.2 | Percent Colchicine Binding Inhibition (CBI), 1 μM [2]: 1.7 ± 13.9% |
| C=CC[C@@H](CC/C(C)=C/C=C/CC/C=C\[C@@H]1CSC([C@@H]2C[C@@H]2C)=N1)OC [curacin A] |  |  |  |  |  |  | 0.048 ± 0.008 | 0.05 ± 0.009 | 0.064 ± 0.007 | 0.186 ± 0.226 | 0.026 ± 0.012 | 0.035 ± 0.007 | 84.9 ± 1.07 | 96.2 ± 0.7 | 98 | (78 ± 2) % | 87 ± 9 | (99 ± 1) % | 97 ± 0 | 97.9 | GI50 (PC-3 cells; read-out: GI50 PC-3 (48 h), 48 h): 0.05 ± 0.009 µM; GI50 (PC-3 cells; read-out: GI50 prostate (PC3), 48 hours of continuous drug exposure, 48 hours continuous exposure): 0.05 ± 0.009 µM; GI50 (MDA-MB231 cells; read-out: GI50 MDA-MB231 (48 h), 48 h): 0.096 ± 0.06 µM; GI50 (MDA-MB231 cells; read-out: GI50 breast (MDA-MB231), 48 hours of continuous drug exposure, 48 hours continuous exposure): 0.096 ± 0.06 µM; GI50 (2008 cells; read-out: GI50 2008 (48 h), 48 h): 0.035 ± 0.007 µM; GI50 (2008 cells; read-out: GI50 ovarian (2008), 48 hours of continuous drug exposure, 48 hours continuous exposure): 0.035 ± 0.007 µM; IC50 ([1]; 30° C. turbidimetric assay, N=2 over 4 concentrations, read-out: IC50, inhibition of GTP/glutamate-induced assembly of tubulin): 0.52 ± 0.21 µM; IC50 ([1]; read-out: 50% Tubulin Polymerization Inhibition Concentration (TPI) IC50, 30° C., 10 μM tubulin): 0.78 ± 0.07 µM; Percent Colchicine Binding Inhibition (CBI), 5 μM, re-test value ([2]; 5 μM compound, re-test (in parentheses)): (95.0 ± 0.7*) %; Percent Colchicine Binding Inhibition (CBI), 50 μM, re-test value ([2]; 50 μM compound, re-test (in parentheses)): (97.7 ± 0.0*) %; displacement of pre-bound [3H]colchicine from tubulin, 30° C. ([2]; equimolar (5 μM) concentration, 30° C.): 78±2%; displacement of pre-bound [3H]colchicine from tubulin, 37° C. ([2]; equimolar (5 μM) concentration, 37° C.): 87±9%; IC50 ([2]; incubation at 30° C. for 15 minutes, read-out: 50% Colchicine Binding Inhibitory Concentration (CBI), 30° C.): 0.9 ± 0.3 µM; IC50 ([2]; incubation at 37° C. for 10 minutes, read-out: 50% Colchicine Binding Inhibitory Concentration (CBI), 37° C.): 0.6 ± 0.1 µM |

More lines, main results first:

| GI50 (PC-3 cells; [3]) [µM] | GI50 (PC-3 cells; [4]) [µM] | GI50 (MDA-MB231 cells; [5]) [µM] | GI50 (MDA-MB231 cells; [6]) [µM] | GI50 (2008 cells; [7]) [µM] | GI50 (2008 cells; [8]) [µM] | GI50 (PC-3 cells; [9]) [µM] | GI50 (PC-3 cells; [10]) [µM] | GI50 (MDA-MB231 cells; [11]) [µM] | GI50 (MDA-MB231 cells; [12]) [µM] | GI50 (2008 cells; [13]) [µM] | GI50 (2008 cells; [14]) [µM] | Percent Colchicine Binding Inhibition (CBI), 5 μM ([2]; 5 μM compound) [%] | Percent Colchicine Binding Inhibition (CBI), 50 μM ([2]; 50 μM compound) [%] | SMILES | % TPI 5 μM [1] [%] | % CBI 5 μM, (30° C.) ([2]; 5 μM compound) | % CBI 5 μM, 37° C. ([2]; 5 μM compound, 37° C.) [%] | % CBI 50 μM, (30° C.) ([2]; 50 μM compound) | % CBI 50 μM, 37° C. ([2]; 50 μM compound, 37° C.) [%] | Percent Tubulin Polymerization Inhibition (TPI), 5 μM [1] [%] | other results |
| --- | --- | --- | --- | --- | --- | --- | --- | --- | --- | --- | --- | --- | --- | --- | --- | --- | --- | --- | --- | --- | --- |
| 0.45 ± 0.09 | 0.24 ± 0.07 | 0.25 ± 0.02 | 0.32 ± 0.2 | 0.25 ± 0.05 | 0.3 ± 0.17 |  |  |  |  |  |  |  |  | C=CC[C@@H](CC/C(C)=C/C=C/CC/C=C\c1csc(C(C)(C)C)n1)OC [JRC4] | 100 | (38 ± 2) % | −21 ± 16 | (43 ± 19) % | 5 ± 13 |  |  |
| 0.061 ± 0.059 | 0.13 ± 0.08 | 0.27 ± 0.16 | 0.2 ± 0.11 | 0.18 ± 0.11 | 0.22 ± 0.09 |  |  |  |  |  |  |  |  | C=CC[C@@H](CC/C(C)=C/C=C/CC/C=C\[C@@H]1CSC(C(C)(C)C)=N1)OC [JRC3] | 100 | (35 ± 4) % | −35 ± 15 | (63 ± 6) % | 13 ± 12 |  |  |
